Measured values as given in patent US8609610B2, “Inhibitors of the trypsin-like site of the proteasome and methods of use thereof” (Trustees of Dartmouth College, priority 2011, dated 2013).
Read-outs that look alike come from different tables or passages of the source.

Assays:
cathepsin D = target: T1, cathepsin D (Homo sapiens, UniProt P07339); assay: Cathepsin D activity assay (SENSOLYTE 520); type: cell-based; conditions: concentrations as high as 27 μM
T1 construct: endogenous in cells
Experimental: Cathepsin B, H, L, S activity was measured with pan-cathepsin substrate Z-FR-amc (Kirschke & Wiederanders (1994) Methods Enzymol. 244:500-11) in extracts of cytosol-less cells at pH 6.0 (Screen, et al. (2010) supra). Cathepsin D activity was measured in cytosol-less extracts using SENSOLYTE 520 Cathepsin D Fluorometric Assay Kit (AnaSpec). Combined cathepsin D and E activity was measured using the same kit, in which cathepsin D substrate provided with the kit was replaced with 7-Methoxycoumarin-[…](Dnp)-X′-NH2 (SEQ ID NO:10; where “X′” stand for D-Arg) internally quenched fluorogenic substrate of cathepsin D and E. In this case, pH 3.0 assay buffer used for cell extraction. All activity observed using both procedures was inhibited by more than 98% by specific inhibitor of aspartic proteases pepstatin A.

[1] = target: T2, caspase-like sites (β1) of proteasome in MM cells (Homo sapiens, UniProt P28072+Q99436); assay: PROTEASOMEGLO assay of proteasome inhibition in MM cells; type: cell-based; conditions: 6 hours, >>30 no inhibition at 30 μM, >30 inhibition 10-50% at 30 μM, read-out: IC50 for sites: Casp-L
T2 sequence (P28072 35-239): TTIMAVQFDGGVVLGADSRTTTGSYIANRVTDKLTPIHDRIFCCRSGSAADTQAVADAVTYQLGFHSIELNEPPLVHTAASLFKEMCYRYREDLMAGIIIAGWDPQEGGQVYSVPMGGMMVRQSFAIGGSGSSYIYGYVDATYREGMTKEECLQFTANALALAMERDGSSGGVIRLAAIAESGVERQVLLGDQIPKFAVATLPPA
T2 sequence (Q99436 44-277): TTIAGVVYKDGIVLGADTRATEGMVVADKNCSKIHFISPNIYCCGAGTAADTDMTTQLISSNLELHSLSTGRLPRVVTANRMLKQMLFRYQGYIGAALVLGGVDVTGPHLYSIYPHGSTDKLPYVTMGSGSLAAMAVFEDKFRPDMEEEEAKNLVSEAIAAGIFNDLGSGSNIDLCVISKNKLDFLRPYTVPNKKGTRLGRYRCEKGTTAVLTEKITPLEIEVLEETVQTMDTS

[2] = target: T3, chymotrypsin-like site of 26S proteasomes (Oryctolagus cuniculus, UniProt G1T4Q9); assay: Inhibition of purified 26S proteasomes, substrate Suc-LLVY-amc; type: biochemical, rabbit; conditions: >>30 no inhibition at 30 μM, >30 inhibition between 10 and 50% at 30 μM, read-out: IC50 for sites in 26S proteasomes: Chym-L
T3 sequence (G1T4Q9 1-263): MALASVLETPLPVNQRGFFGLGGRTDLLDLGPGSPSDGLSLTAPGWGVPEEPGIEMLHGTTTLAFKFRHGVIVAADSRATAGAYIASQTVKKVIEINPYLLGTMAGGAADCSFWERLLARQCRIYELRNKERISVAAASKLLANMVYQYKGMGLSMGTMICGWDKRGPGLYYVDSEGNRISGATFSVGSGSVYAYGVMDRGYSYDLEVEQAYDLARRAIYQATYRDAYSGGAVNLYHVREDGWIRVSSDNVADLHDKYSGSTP

[3] = target: T4, trypsin-like sites (β2) of proteasome in MM cells (Homo sapiens, UniProt Q99436); assay: PROTEASOMEGLO assay of proteasome inhibition in MM cells; type: cell-based; conditions: for IC50: 6 hours, >>30 no inhibition at 30 μM, >30 inhibition 10-50% at 30 μM, read-out: IC50 for sites: Tr-L
T4 construct: endogenous in cells; host or cells: NCI-H929, RPMI-8226 and other MM cell lines
T4 sequence (Q99436 44-277): T2 sequence (Q99436 44-277)

[4] = tested on: trypsin-like sites (β2) of proteasome in MM cells; assay: as above; type: cell-based
[5] = tested on: T5, chymotrypsin-like sites (β5) of proteasome in MM cells; assay: as above; type: cell-based; conditions: 6 hours, >>30 no inhibition at 30 μM, >30 inhibition 10-50% at 30 μM, read-out: IC50 for sites: Chym-L
T5 construct: other: NCI-H929; bortezomib 100 nM 1 h; bortezomib 11 nM 1 h; bortezomib 3.7 nM 1 h; bortezomib 33 nM 1 h; other: NCI-H9

[6] = tested on: peripheral blood mononuclear cells (PBMNCs); assay: CELL TITER-GLO viability of PBMNCs; type: cell-based; conditions: cells from three donors
Experimental: RPMI-8226 and NCI-H929 cells were cultured in RPMI-1640 supplemented with 10% fetal bovine serum, penicillin, streptomycin, and plasmocin in 5% CO2 humidified incubator. HEK-293T cells were cultured in DMEM containing 10% fetal calf serum, 10 units/mL penicillin, and 10 μg/mL streptomycin in a 7% CO2 humidified incubator. Viability of multiple myeloma cells was measured with ALAMAR BLUE mitochondrial dye conversion assay. Viability of peripheral blood mononuclear cells (PBMNCs) was measured using CELL TITER-GLO luminescent cell viability assay (Promega), which is based on quantification of ATP present in the cells. Caspase-3/7 activity was measured using APO-ONE 3/7 homogeneous assay (Promega).

NCI-H929 cells = assay: ALAMAR BLUE cell viability assay; type: cell-based
How it was run: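 Myeloma lines were grown in RPMI-1640 with 10% FBS; viability of myeloma cells was read by ALAMAR BLUE mitochondrial dye conversion. PBMNC viability used CELL TITER-GLO ATP luminescence. Caspase-3/7 activity in NCI-H929 and MM1.R was measured with the APO-ONE homogeneous assay.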

T1 sequence (P07339 65-412): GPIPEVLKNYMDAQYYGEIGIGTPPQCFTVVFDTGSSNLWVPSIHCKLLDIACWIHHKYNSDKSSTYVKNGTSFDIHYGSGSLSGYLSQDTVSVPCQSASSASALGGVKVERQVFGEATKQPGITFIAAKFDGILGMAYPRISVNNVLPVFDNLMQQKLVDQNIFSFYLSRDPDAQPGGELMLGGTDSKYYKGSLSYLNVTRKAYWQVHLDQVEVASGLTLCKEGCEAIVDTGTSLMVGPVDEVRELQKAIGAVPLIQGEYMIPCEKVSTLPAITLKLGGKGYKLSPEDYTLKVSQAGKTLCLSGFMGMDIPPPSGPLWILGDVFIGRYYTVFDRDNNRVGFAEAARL

For `Cc1c(O)cccc1C(=O)N[C@H](C(=O)N[C@@H](CO)C(=O)N[C@@H](CCCNC(=N)N)C(=O)[C@@]1(C)CO1)C(C)C` [NC-022, HMB-Val-Ser-Arg-ek], the “inhibition of cathepsin D” value (cathepsin D) was “did not inhibit”, the IC50 ([1]; NCI-H929 cells) was greater than 30 µM and the IC50 ([1]; RPMI-8226 cells) was greater than 30 µM. The IC50 [2] was 1.7 µM, the inhibition at 3 µM ([3]; 3 μM NC-022, within 4-6 hours after addition) was 90% and the “inhibition of trypsin-like activity by NC-022 treatment” value ([3]; NCI-H929 and KMS-12-BM, 5 hours after NC-022 addition) was “that trypsin-like activity was inhibited by >90% but inhibition of the chymotrypsin-like activity was not altered by NC-022 treatment”. For the same molecule, the “inhibition of trypsin-like activity in live cells” value ([3]; NCI-H929 cells treated overnight) was “sub-micromolar concentrations”, the IC50 ([3]; NCI-H929 cells) was 0.9 µM and the IC50 ([3]; RPMI-8226 cells) was 24 µM. The “difference in IC50 for trypsin-like activity between NCI-H929 and RPMI-8226” value [4] was 25 fold, the “time to steady-state proteasome inhibition” value ([4]; RPMI-8226 cells) was greater than 6 h and the IC50 ([5]; NCI-H929 cells) was greater than 30 µM. The IC50 ([5]; RPMI-8226 cells) was greater than 30 µM, the “sensitization of PBMNCs to bortezomib and carfilzomib” value [6] was “did not sensitize cells” and the “sensitization: change of IC50 of LU-005” value (NCI-H929 cells; LU-005 1 hour, then NC-022 48 hours, maximal at 3 μM NC-022) was “up to 8.5 fold”. The cell viability (NCI-H929 cells; NCI-H929, 48 hours, even at concentrations that completely inhibited the trypsin-like sites) was “No loss of viability”.
